This note sets out measurements from ChEMBL document CHEMBL1765061, “Synthesis of rabdokunmin C analogues and their inhibitory effect on NF-κB activation” (Bioorg Med Chem, 2011).

Each structure is given as a SMILES string. Calls of active or inactive are those of the source. The calls are words filed in the database; no cut-off is given here.

Tested on in the first data set: not listed separately
Nature of the data set: Inhibition of LPS-induced NF-kappaB activation in human 293T cells incubated for 30 mins followed by treated with LPS for 6 hrs by dual-luciferase reporter assay. Type of data set: cell-based. The conditions noted are these: HEK-293T. (A reporter such as luciferase makes a cellular process visible.)
By IC50 is commonly meant the concentration that gives 50% inhibition. In the case of `C=C1C(=O)[C@@]23[C@H](O)C[C@@H]4[C@@](C)(CO)CCC[C@@]4(C)[C@@H]2C[C@H](OC(=O)CCC)[C@@H]1[C@H]3O`, the IC50 is 1680 nM.

For the compound `C=C1C(=O)[C@@]23[C@H](O)C[C@@H]4[C@@](C)(COC(=O)CC)CCC[C@@]4(C)[C@@H]2C[C@H](OC(=O)CC)[C@@H]1[C@H]3O`, the IC50 was greater than 5000 nM.

In turn, `C=C1C(=O)[C@@]23[C@@H]4OC(C)(C)O[C@@H]2C[C@@H]2[C@@](C)(COC(C)=O)CCC[C@@]2(C)[C@@H]3C[C@H](OC(C)=O)[C@@H]14` returned an IC50 of 2010 nM.

In turn, `C=C1C(=O)[C@@]23[C@H](O)C[C@@H]4[C@@](C)(COC(C)=O)CCC[C@@]4(C)[C@@H]2C[C@H](OC(C)=O)[C@@H]1[C@H]3O` showed an IC50 of 2000 nM.

The compound `C=C1C(=O)[C@@]23[C@@H]4OC(C)(C)O[C@@H]2C[C@@H]2[C@@](C)(CO)CCC[C@@]2(C)[C@@H]3C[C@H](OC(C)=O)[C@@H]14` returned an IC50 of 1530 nM.

`C=C1C(=O)[C@@]23[C@H](O)C[C@@H]4[C@@](C)(COC(=O)CCC)CCC[C@@]4(C)[C@@H]2C[C@H](OC(=O)CCC)[C@@H]1[C@H]3O`: the IC50 came out at 2970 nM.

`C=C1C(=O)[C@@]23[C@H](O)C[C@@H]4[C@@](C)(COC(C)=O)CCC[C@@]4(C)[C@@H]2C=C[C@@H]1[C@H]3O` came in with an IC50 of 1470 nM.

The compound `CC1=C(O)C(=O)C=C2C1=CC=C1[C@@]2(C)CC[C@@]2(C)[C@@H]3C[C@](C)(C(=O)O)CC[C@]3(C)CC[C@]12C` [CELASTROL] yielded an IC50 of 170 nM.

Regarding `C=C1C(=O)[C@]23[C@H](O)[C@H]1CC[C@H]2[C@@]12CO[C@]3(O)[C@@H](O)[C@@H]1C(C)(C)CC[C@@H]2O` [ORIDONIN], the IC50 was found to be 4440 nM.

The test system of another data set is RAW264. Briefly: Inhibition of LPS-induced NO production in mouse RAW264 cells after 24 hrs. Type of data set: functional, cell-based.
Settings: not given
For `C=C1C(=O)[C@@]23[C@@H]4OC(C)(C)O[C@@H]2C[C@@H]2[C@@](C)(COC(=O)C(F)(F)F)CCC[C@@]2(C)[C@@H]3C[C@H](OC(=O)C(F)(F)F)[C@@H]14`, the inhibition result was “Active”.

As for `C=C1C(=O)[C@@]23[C@H](O)C[C@@H]4[C@@](C)(CO)CCC[C@@]4(C)[C@@H]2C=C[C@@H]1[C@H]3O`, the inhibition result was “Active”.

In the case of `C=C1C(=O)[C@@]23[C@@H]4OC(C)(C)O[C@@H]2C[C@@H]2[C@@](C)(COC(C)=O)CCC[C@@]2(C)[C@@H]3C[C@H](OC(C)=O)[C@@H]14`, the inhibition entry is “Active”.

Regarding `C=C1C(=O)[C@@]23[C@H](O)C[C@@H]4[C@@](C)(COC(C)=O)CCC[C@@]4(C)[C@@H]2C[C@H](OC(C)=O)[C@@H]1[C@H]3O`, the inhibition entry is “Active”.

On to `C=C1C(=O)[C@@]23[C@@H]4OC(C)(C)O[C@@H]2C[C@@H]2[C@@](C)(CO)CCC[C@@]2(C)[C@@H]3C[C@H](OC(C)=O)[C@@H]14`, for which the inhibition result was “Active”.

On to `C=C1C(=O)[C@@]23[C@H](O)C[C@H]4[C@@](C)(CCC[C@]4(C)C=O)[C@@H]2C[C@H](OC(C)=O)[C@@H]1[C@H]3O`, for which the inhibition result was “Active”.

Take `C=C1C(=O)[C@@]23[C@@H]4OC(C)(C)O[C@@H]2C[C@@H]2[C@@](C)(CO)CCC[C@@]2(C)[C@@H]3C=C[C@@H]14`: the inhibition result was “Active”.

On to `C=C1C(=O)[C@@]23[C@H](O)C[C@@H]4[C@@](C)(CO)CCC[C@@]4(C)[C@@H]2C[C@H](O)[C@@H]1[C@H]3O` [RABDOKUNMIN C], for which the inhibition entry was “Active”.

Turning to `C=C1C(=O)[C@@]23[C@@H]4OC(C)(C)O[C@@H]2C[C@@H]2[C@@](C)(CO)CCC[C@@]2(C)[C@@H]3C[C@H](O)[C@@H]14`, the inhibition entry was “Active”.

For `C=C1C(=O)[C@@]23[C@H](O)C[C@@H]4[C@@](C)(COC(C)=O)CCC[C@@]4(C)[C@@H]2C=C[C@@H]1[C@H]3O`, the inhibition result is “Active”.

On to `C=C1C(=O)[C@@]23[C@H](O)C[C@H]4[C@@](C)(CCC[C@]4(C)C(=O)O)[C@@H]2C[C@H](OC(C)=O)[C@@H]1[C@H]3O`, for which the inhibition entry is “Active”.

For the compound `C=C1C(=O)[C@@]23[C@H](O)C[C@@H]4[C@@](C)(CO)CCC[C@@]4(C)[C@@H]2C[C@H](OC(C)=O)[C@@H]1[C@H]3O`, the inhibition entry is “Active”.

Take `CC1=C(O)C(=O)C=C2C1=CC=C1[C@@]2(C)CC[C@@]2(C)[C@@H]3C[C@](C)(C(=O)O)CC[C@]3(C)CC[C@]12C` [CELASTROL]: the inhibition result was “Active”.

As for `C=C1C(=O)[C@@]23[C@@H]4OC(C)(C)O[C@@H]2C[C@@H]2[C@@](C)(COC(C)=O)CCC[C@@]2(C)[C@@H]3C[C@H](O)[C@@H]14`, the inhibition result was “Active”.

`C=C1C(=O)[C@@]23[C@H](O)C[C@@H]4[C@@](C)(COC(C)=O)CCC[C@@]4(C)[C@@H]2C[C@H](O)[C@@H]1[C@H]3O` [ALBOPILOSIN A]: the inhibition entry is “Active”.

Regarding `C[C@H]1C(=O)[C@@]23[C@H](O)C[C@@H]4[C@@](C)(CO)CCC[C@@]4(C)[C@@H]2C[C@H](O)[C@@H]1[C@H]3O`, the inhibition result is “Active”.

Tested on in a further data set: not listed separately
Nature of the data set: Cytotoxicity against mouse RAW264 cells after 2 hrs by WST reagent-based microplate reader analysis. The data set is classed as cell-based. The conditions noted are these: raw264, 2 h.
As for `C=C1C(=O)[C@@]23[C@@H]4OC(C)(C)O[C@@H]2C[C@@H]2[C@@](C)(COC(=O)C(F)(F)F)CCC[C@@]2(C)[C@@H]3C[C@H](OC(=O)C(F)(F)F)[C@@H]14`, the Activity result is recorded as “Toxic”.

In the case of `C=C1C(=O)[C@@]23[C@H](O)C[C@@H]4[C@@](C)(CO)CCC[C@@]4(C)[C@@H]2C=C[C@@H]1[C@H]3O`, the Activity result is “Toxic”.

With `C=C1C(=O)[C@@]23[C@@H]4OC(C)(C)O[C@@H]2C[C@@H]2[C@@](C)(COC(C)=O)CCC[C@@]2(C)[C@@H]3C[C@H](OC(C)=O)[C@@H]14`, the Activity result is listed as “Toxic”.

Regarding `C=C1C(=O)[C@@]23[C@H](O)C[C@@H]4[C@@](C)(COC(C)=O)CCC[C@@]4(C)[C@@H]2C[C@H](OC(C)=O)[C@@H]1[C@H]3O`, the Activity entry is listed as “Toxic”.

Consider `C=C1C(=O)[C@@]23[C@@H]4OC(C)(C)O[C@@H]2C[C@@H]2[C@@](C)(CO)CCC[C@@]2(C)[C@@H]3C[C@H](OC(C)=O)[C@@H]14`, for which the Activity result is listed as “Toxic”.

As to `C=C1C(=O)[C@@]23[C@H](O)C[C@H]4[C@@](C)(CCC[C@]4(C)C=O)[C@@H]2C[C@H](OC(C)=O)[C@@H]1[C@H]3O`, the Activity result is “Toxic”.

Take `C=C1C(=O)[C@@]23[C@@H]4OC(C)(C)O[C@@H]2C[C@@H]2[C@@](C)(CO)CCC[C@@]2(C)[C@@H]3C=C[C@@H]14`: the Activity result is listed as “Toxic”.

Turning to `C=C1C(=O)[C@@]23[C@H](O)C[C@@H]4[C@@](C)(CO)CCC[C@@]4(C)[C@@H]2C[C@H](O)[C@@H]1[C@H]3O` [RABDOKUNMIN C], the Activity result is “Toxic”.

As to `C=C1C(=O)[C@@]23[C@@H]4OC(C)(C)O[C@@H]2C[C@@H]2[C@@](C)(CO)CCC[C@@]2(C)[C@@H]3C[C@H](O)[C@@H]14`, the Activity entry was “Toxic”.

For `C=C1C(=O)[C@@]23[C@H](O)C[C@@H]4[C@@](C)(COC(C)=O)CCC[C@@]4(C)[C@@H]2C=C[C@@H]1[C@H]3O`, the Activity entry is given as “Toxic”.

For the compound `C=C1C(=O)[C@@]23[C@H](O)C[C@H]4[C@@](C)(CCC[C@]4(C)C(=O)O)[C@@H]2C[C@H](OC(C)=O)[C@@H]1[C@H]3O`, the Activity entry is “Toxic”.

As for `C=C1C(=O)[C@@]23[C@H](O)C[C@@H]4[C@@](C)(CO)CCC[C@@]4(C)[C@@H]2C[C@H](OC(C)=O)[C@@H]1[C@H]3O`, the Activity entry was “Toxic”.

Take `CC1=C(O)C(=O)C=C2C1=CC=C1[C@@]2(C)CC[C@@]2(C)[C@@H]3C[C@](C)(C(=O)O)CC[C@]3(C)CC[C@]12C` [CELASTROL]: the Activity entry is on record as “Toxic”.

For the compound `C=C1C(=O)[C@@]23[C@@H]4OC(C)(C)O[C@@H]2C[C@@H]2[C@@](C)(COC(C)=O)CCC[C@@]2(C)[C@@H]3C[C@H](O)[C@@H]14`, the Activity result is on record as “Toxic”.

Turning to `C=C1C(=O)[C@@]23[C@H](O)C[C@@H]4[C@@](C)(COC(C)=O)CCC[C@@]4(C)[C@@H]2C[C@H](O)[C@@H]1[C@H]3O` [ALBOPILOSIN A], the Activity result is “Toxic”.

`C[C@H]1C(=O)[C@@]23[C@H](O)C[C@@H]4[C@@](C)(CO)CCC[C@@]4(C)[C@@H]2C[C@H](O)[C@@H]1[C@H]3O`: the Activity entry is listed as “Toxic”.

The test system of the next data set is HEK-293T. Briefly: Cytotoxicity against human 293T cells assessed as cell viability by dual-luciferase reporter assay.
Settings: not given
Type of data set: cell-based.
In the case of `C=C1C(=O)[C@@]23[C@H](O)C[C@@H]4[C@@](C)(CO)CCC[C@@]4(C)[C@@H]2C[C@H](OC(=O)CCC)[C@@H]1[C@H]3O`, the IC50 was found to be 1910 nM.

For the compound `C=C1C(=O)[C@@]23[C@H](O)C[C@@H]4[C@@](C)(COC(=O)CC)CCC[C@@]4(C)[C@@H]2C[C@H](OC(=O)CC)[C@@H]1[C@H]3O`, the IC50 was greater than 5000 nM.

For the compound `C=C1C(=O)[C@@]23[C@@H]4OC(C)(C)O[C@@H]2C[C@@H]2[C@@](C)(COC(C)=O)CCC[C@@]2(C)[C@@H]3C[C@H](OC(C)=O)[C@@H]14`, the half-maximal inhibitory concentration (IC50) is 1800 nM.

For `C=C1C(=O)[C@@]23[C@H](O)C[C@@H]4[C@@](C)(COC(C)=O)CCC[C@@]4(C)[C@@H]2C[C@H](OC(C)=O)[C@@H]1[C@H]3O`, the IC50 was 2920 nM.

Consider `C=C1C(=O)[C@@]23[C@@H]4OC(C)(C)O[C@@H]2C[C@@H]2[C@@](C)(CO)CCC[C@@]2(C)[C@@H]3C[C@H](OC(C)=O)[C@@H]14`, for which the IC50 is 2390 nM.

In the case of `C=C1C(=O)[C@@]23[C@H](O)C[C@@H]4[C@@](C)(COC(=O)CCC)CCC[C@@]4(C)[C@@H]2C[C@H](OC(=O)CCC)[C@@H]1[C@H]3O`, the IC50 was found to be 2300 nM.

With `C=C1C(=O)[C@@]23[C@H](O)C[C@@H]4[C@@](C)(COC(C)=O)CCC[C@@]4(C)[C@@H]2C=C[C@@H]1[C@H]3O`, the IC50 was greater than 5000 nM.

Regarding `CC1=C(O)C(=O)C=C2C1=CC=C1[C@@]2(C)CC[C@@]2(C)[C@@H]3C[C@](C)(C(=O)O)CC[C@]3(C)CC[C@]12C` [CELASTROL], the IC50 stood at 670 nM.

With `C=C1C(=O)[C@]23[C@H](O)[C@H]1CC[C@H]2[C@@]12CO[C@]3(O)[C@@H](O)[C@@H]1C(C)(C)CC[C@@H]2O` [ORIDONIN], the IC50 was greater than 5000 nM.
